US9821002B2, “Method for alleviating radiation injury with isorhamnetin-3-O-β-D-glucoside” (Sinotai Oncology Associate., Ltd., priority 2015, dated 2017)

System: NMuMG cells
Assay: Apoptosis assay (FITC Annexin V/PI) after X-ray irradiation
Format: cell-based, mouse
Settings: 2 h pretreatment, X-ray 15 Gy, 72 hours, mean ± SEM
Text: Four groups of BNL CL.2 cells (i.e., a normal control group referred to as Normal Control Group 1-A, an X-ray control group referred to as X-Ray Control Group 1-A, and two experimental groups referred to as Experimental Groups 1-A to 2-A), and six groups of NMuMG cells (i.e., a normal control group referred to as Normal Control Group 1-B, an X-ray control group referred to as X-Ray Control Group 1-B, two isorhamnetin groups referred to as Isorhamnetin Groups 1 to 2, and two experimental groups referred to as Experimental Groups 1-B to 2-B), were prepared based on the procedure set forth in “Source and cultivation of cell lines” of “Experimental materials”. BNL CL.2 cells in each group were cultivated using 5 mL of a corresponding medium shown in Table 1 and a 6-cm Petri dish in an amount of 2×10^5 cells per dish. Likewise, NMuMG cells in each group were cultivated using 5 mL of a corresponding medium shown in Table 1 and a 6-cm Petri dish in an amount of 2.5×10^5 cells per dish. The cultivation was conducted in an incubator (37° C., 5% CO2) for 24 hours.
Subsequently, medium was replaced with fresh medium. The obtained cultures in Experimental Groups 1-A, 1-B, 2-A, and 2-B were pretreated with the stock solution of isorhamnetin-3-O-β-D-glucoside, and the obtained cultures in Isorhamnetin Groups 1 to 2 were pretreated with the stock solution of isorhamnetin.
The culture in each group was then cultivated in an incubator (37° C., 5% CO2) for two hours. The resultant culture was used for the following experiments in sections B to D.
The cultures in X-Ray Control Group 1-A, X-Ray Control Group 1-B, Isorhamnetin Group 1, Isorhamnetin Group 2, Experimental Group 1-A, Experimental Group 1-B, Experimental Group 2-A, and Experimental Group 2-B, prepared according to section A of “Experimental procedures” in this example, were subjected to X-ray irradiation using a linear accelerator at a dose of 15 Gy. The cultures in Normal Control Groups 1-A and 1-B received no X-ray irradiation treatment. The culture of BNL CL.2 cells in each group was cultivated using a 6-cm Petri dish in an incubator (37° C., 5% CO2) for 96 hours, and the culture of NMuMG cells in each group was cultivated using a 6-cm Petri dish in an incubator (37° C., 5% CO2) for 72 hours. 1 mL of trypsin-EDTA was added to the culture in each group so as to detach the cells from the bottom of the Petri dish. Following this, 1 mL of a fresh medium (corresponding to the medium described in Table 1) was added to neutralize the activity of the trypsin, and the resultant cell suspension was transferred to a centrifuge tube with a pipette, followed by centrifugation at 1200 rpm for three minutes. The supernatant was removed, and the cell pellet thus obtained was washed once with cold PBS (pH 7.4), followed by centrifugation at 1200 rpm for 3 minutes. The supernatant was removed, and 100 μL of cold Annexin V binding buffer (BD Pharmingen™) was added to sufficiently re-suspend the cell pellet thereby obtaining a cell suspension having a cell concentration of 1.0×10^6 cells/mL. Afterward, 5 μL of FITC Annexin V (BD Pharmingen™) and 5 μL of propidium iodide (PI) staining solution (BD Pharmingen™) were added to the obtained cell suspension, followed by mixing evenly and standing in the dark at 4° C. for 30 minutes so as to obtain stained cells.
Subsequently, the stained cells were analyzed using BD Accuri™ C6 flow cytometry, in which cells that could be stained with FITC Annexin V but not with PI (i.e., FITC Annexin V positive and PI negative) represented cells that were induced with early apoptosis; cells stained with both FITC Annexin V and PI (i.e., FITC Annexin V positive and PI positive) represented cells that were induced with late apoptosis; and cells that could not be stained with FITC Annexin V and PI (i.e., FITC Annexin V negative and PI negative) represented viable cells. The number of stained cells was calculated using BD Accuri™ C6 software. […]

Structure (SMILES): COc1cc(-c2oc3cc(O)cc(O)c3c(=O)c2O)ccc1O [Isorhamnetin]
- Apoptosis percentage (15 μM): 22.87 ± 1.33%
- Apoptosis percentage (30 μM): 22.13 ± 0.29%
